Laboratory results published in the supplement of paper PMC10307832.

How the values were obtained:
Test in all cases: relative viability (nuclei count vs DMSO), 5 days (fraction); higher = more cells survive
17-AAG + Pictilisib = compound: C=CCNC1=C2C[C@@H](C)C[C@H](OC)[C@H](O)[C@@H](C)/C=C(\C)[C@H](OC(N)=O)[C@@H](OC)/C=C\C=C(/C)C(=O)NC(=CC1=O)C2=O [17-AAG] + CS(=O)(=O)N1CCN(Cc2cc3nc(-c4cccc5[nH]ncc45)nc(N4CCOCC4)c3s2)CC1 [Pictilisib] (partner 1 µM)
Method in brief: (§1)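 Each reported value is a median over duplicate plates. It expresses relative viability: treated-well nuclei count divided by vehicle-well nuclei count. Lung cancer cell lines in 1536-well plates were dosed by pin tool a day after seeding, alone with one drug or with a fixed anchor-drug dose plus five library-drug doses (not always all listed) in √10 steps, and nuclei were counted after 5 days.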

17-AAG + Crizotinib = compound: C=CCNC1=C2C[C@@H](C)C[C@H](OC)[C@H](O)[C@@H](C)/C=C(\C)[C@H](OC(N)=O)[C@@H](OC)/C=C\C=C(/C)C(=O)NC(=CC1=O)C2=O [17-AAG] + C[C@@H](Oc1cc(-c2cnn(C3CCNCC3)c2)cnc1N)c1c(Cl)ccc(F)c1Cl [Crizotinib] (partner 1 µM)
Method in brief: as §1

17-AAG + Dasatinib = compound: C=CCNC1=C2C[C@@H](C)C[C@H](OC)[C@H](O)[C@@H](C)/C=C(\C)[C@H](OC(N)=O)[C@@H](OC)/C=C\C=C(/C)C(=O)NC(=CC1=O)C2=O [17-AAG] + Cc1nc(Nc2ncc(C(=O)Nc3c(C)cccc3Cl)s2)cc(N2CCN(CCO)CC2)n1 [Dasatinib] (partner 0.075 µM)
Method in brief: as §1

17-AAG + Vorinostat = compound: C=CCNC1=C2C[C@@H](C)C[C@H](OC)[C@H](O)[C@@H](C)/C=C(\C)[C@H](OC(N)=O)[C@@H](OC)/C=C\C=C(/C)C(=O)NC(=CC1=O)C2=O [17-AAG] + O=C(CCCCCCC(=O)Nc1ccccc1)NO [Vorinostat] (partner 1 µM)
Method in brief: as §1

Row | Cell Line | relative viability (17-AAG + Pictilisib; first compound 0.00128 µM) | relative viability (17-AAG + Pictilisib; first compound 0.004048 µM) | relative viability (17-AAG + Pictilisib; first compound 0.0128 µM) | relative viability (17-AAG + Pictilisib; first compound 0.04048 µM) | relative viability (17-AAG + Pictilisib; first compound 0.128 µM) | relative viability (17-AAG + Crizotinib; first compound 0.00128 µM) | relative viability (17-AAG + Crizotinib; first compound 0.004048 µM) | relative viability (17-AAG + Crizotinib; first compound 0.0128 µM) | relative viability (17-AAG + Crizotinib; first compound 0.04048 µM) | relative viability (17-AAG + Crizotinib; first compound 0.128 µM) | relative viability (17-AAG + Dasatinib; first compound 0.00128 µM) | relative viability (17-AAG + Dasatinib; first compound 0.004048 µM) | relative viability (17-AAG + Dasatinib; first compound 0.0128 µM) | relative viability (17-AAG + Dasatinib; first compound 0.04048 µM) | relative viability (17-AAG + Dasatinib; first compound 0.128 µM) | relative viability (17-AAG + Vorinostat; first compound 0.00128 µM) | relative viability (17-AAG + Vorinostat; first compound 0.004048 µM) | relative viability (17-AAG + Vorinostat; first compound 0.0128 µM) | relative viability (17-AAG + Vorinostat; first compound 0.04048 µM) | relative viability (17-AAG + Vorinostat; first compound 0.128 µM)
1 | LU99A | 0.308 | 0.377 | 0.232 | 0.228 | 0.144 | 0.588 | 0.512 | 0.331 | 0.184 | 0.134 | 0.508 | 0.387 | 0.283 | 0.13 | 0.0659 | 0.479 | 0.476 | 0.301 | 0.203 | 0.127
2 | LXF-289 | 0.823 | 0.805 | 0.239 | 0.107 | 0.0836 | 0.789 | 0.783 | 0.73 | 0.572 | 0.163 | 0.234 | 0.183 | 0.0975 | 0.064 | 0.0605 | 0.765 | 0.759 | 0.402 | 0.214 | 0.115
3 | NCI-H23 | 0.468 | 0.517 | 0.224 | 0.179 | 0.145 | 0.426 | 0.5 | 0.403 | 0.155 | 0.123 | 0.697 | 0.746 | 0.389 | 0.165 | 0.119 | 0.635 | 0.373 | 0.344 | 0.129 | 0.116
4 | NCI-H322M | 0.553 | 0.564 | 0.523 | 0.259 | 0.279 | 0.811 | 0.92 | 0.979 | 0.65 | 0.442 | 0.284 | 0.302 | 0.256 | 0.257 | 0.268 | 0.987 | 1.15 | 0.569 | 0.383 | 0.482
5 | NCI-H358 | 0.392 | 0.219 | 0.125 | 0.131 | 0.126 | 0.752 | 0.268 | 0.152 | 0.118 | 0.0862 | 0.216 | 0.117 | 0.0644 | 0.0712 | 0.0579 | 0.703 | 0.439 | 0.113 | 0.0837 | 0.0628
6 | NCI-H441 | 0.582 | 0.334 | 0.285 | 0.216 | 0.124 | 0.804 | 0.707 | 0.462 | 0.292 | 0.0949 | 0.587 | 0.45 | 0.129 | 0.122 | 0.127 | 0.968 | 0.996 | 0.617 | 0.128 | 0.121
7 | NCI-H460 | 0.404 | 0.462 | 0.193 | 0.0668 | 0.0737 | 0.685 | 0.521 | 0.0433 | 0.0161 | 0.013 | 0.518 | 0.462 | 0.0434 | 0.0267 | 0.019 | 0.733 | 0.41 | 0.0303 | 0.0238 | 0.0231
8 | NCI-H520 | 0.275 | 0.254 | 0.207 | 0.167 | 0.161 | 0.924 | 0.663 | 0.492 | 0.112 | 0.0889 | 0.241 | 0.236 | 0.21 | 0.169 | 0.121 | 0.75 | 0.662 | 0.433 | 0.174 | 0.181
9 | NCI-H596 | 0.363 | 0.304 | 0.417 | 0.42 | 0.253 | 0.95 | 0.834 | 1.03 | 0.986 | 0.542 | 0.587 | 0.524 | 0.579 | 0.587 | 0.238 | 0.654 | 0.582 | 0.692 | 0.576 | 0.323
10 | NCI-H647 | 0.454 | 0.253 | 0.0973 | 0.15 | 0.106 | 1.11 | 0.755 | 0.101 | 0.0977 | 0.08 | 0.193 | 0.112 | 0.0468 | 0.107 | 0.0735 | 0.584 | 0.533 | 0.132 | 0.116 | 0.0825
11 | NCI-H650 | 0.96 | 1.05 | 0.744 | 0.776 | 0.329 | 0.759 | 0.685 | 0.6 | 0.476 | 0.134 | 0.427 | 0.468 | 0.4 | 0.256 | 0.136 | 0.443 | 0.497 | 0.477 | 0.32 | 0.193
12 | NCI-H661 | 0.39 | 0.534 | 0.363 | 0.259 | 0.275 | 1.13 | 1.02 | 0.947 | 0.841 | 0.532 | 0.878 | 0.862 | 0.853 | 0.361 | 0.195 | 0.785 | 0.791 | 0.707 | 0.441 | 0.31
13 | NCI-H727 | 0.405 | 0.513 | 0.217 | 0.171 | 0.198 | 0.968 | 0.74 | 0.586 | 0.191 | 0.188 | 0.378 | 0.376 | 0.326 | 0.231 | 0.214 | 1.36 | 1.05 | 1.23 | 1.32 | 0.511
14 | NCI-H838 | 0.498 | 0.306 | 0.174 | 0.157 | 0.132 | 0.748 | 0.729 | 0.259 | 0.118 | 0.112 | 0.291 | 0.269 | 0.203 | 0.186 | 0.2 | 0.759 | 0.779 | 0.213 | 0.168 | 0.169
